In data set [1] the test system is Escherichia coli. Description: Antibacterial activity against Escherichia coli NCTC 10418. The class given is functional.
Data set [2] deals with Pseudomonas aeruginosa. Description: Antibacterial activity against Pseudomonas aeruginosa. Type of data set: functional.
In data set [3] the test system is Vibrio parahaemolyticus. Put plainly: Antibacterial activity against Vibrio parahaemolyticus. The class given is functional.
Data set [4] concerns Salmonella typhimurium. Description: Antibacterial activity against Salmonella Typhimurium. Type of data set: functional, Salmonella enterica subsp. enterica serovar Typhimurium. The settings on record: Salmonella enterica.
Data set [5] relates to Salmonella enteritidis. Description: Antibacterial activity against Salmonella enteritidis. The class given is functional, Salmonella enterica subsp. enterica serovar Enteritidis. Conditions: Salmonella enterica.
In data set [6] the test system is Morganella morganii. Put plainly: Antibacterial activity against Morganella morganii. Type of data set: functional.
For data set [7], the system named is Vibrio cholerae. Description: Antibacterial activity against Vibrio cholerae 0139. Type of data set: functional.
Data set [8] concerns Proteus mirabilis. Description: Antibacterial activity against Proteus mirabilis. The class given is functional.
In data set [9] the test system is Shigella boydii. Description: Antibacterial activity against Shigella boydii. The class given is functional.
Data set [10] has as its system Klebsiella pneumoniae. Put plainly: Antibacterial activity against Klebsiella ozaenae. The settings on record: subsp. ozaenae. Type of data set: functional.
Data set [11] has as its system Salmonella paratyphi. Put plainly: Antibacterial activity against Salmonella paratyphi A. The class given is functional, Salmonella enterica subsp. enterica serovar Paratyphi A. Conditions: Salmonella enterica.
The subject of data set [12] is Vibrio fluvialis. Description: Antibacterial activity against Vibrio fluvialis. The class given is functional.
Data set [13] deals with Edwardsiella tarda. Put plainly: Antibacterial activity against Edwardsiella tarda. The class given is functional.
Data set [14] can be described thus: Selectivity index expressed as the ratio of CC50 to EC50. Type of data set: functional.
In data set [15] the test system is Citrobacter freundii. Put plainly: Antibacterial activity against Citrobacter ferundii. Type of data set: functional.
Data set [16] relates to Mycobacterium tuberculosis. Description: Antimycobacterial activity against Mycobacterium tuberculosis strain H37Rv. The class given is functional. Also noted: concentration or dose not given beside the values.
In data set [17] the test system is Enterobacter. Put plainly: Antibacterial activity against Enterobacter. The class given is functional.
In data set [18] the test system is Vibrio mimicus. Description: Antibacterial activity against Vibrio mimicus. Type of data set: functional.
Data set [19] in a line: In vitro hydrolysis in human plasma. The class given is ADME, cell-free.
In data set [20] the test system is Klebsiella pneumoniae. Description: Antibacterial activity against Klebsiella pneumoniae. The class given is functional.
For data set [21], the system named is Priestia megaterium. Description: Antibacterial activity against Bacillus megatherium. Type of data set: functional.
The test system of data set [22] is Staphylococcus aureus. Description: Antibacterial activity against Staphylococcus aureus. The class given is functional.
The subject of data set [23] is Vibrio cholerae. Put plainly: Antibacterial activity against Vibrio cholerae 01. The class given is functional.
Data set [24] deals with Shigella sonnei. Description: Antibacterial activity against Shigella sonnei. The class given is functional.
For data set [25], the system named is CCRF-CEM. Description: Cytotoxic concentration of compound required to reduce the viability of mock infected CEM cells by 50%. The class given is functional. The settings on record: Homo sapiens.
The subject of data set [26] is Plesiomonas shigelloides. Description: Antibacterial activity against Plesiomonas shigelloides. The class given is functional.
Data set [27] relates to Proteus vulgaris. Put plainly: Antibacterial activity against Proteus vulgaris. The class given is functional.
Data set [28] concerns CCRF-CEM. Put plainly: Effective concentration of compound achieving 50% protection in CEM cell lines against the cytopathic effect of HIV-1. Type of data set: functional, cell-based. Conditions: Homo sapiens. Background: Cytopathic effects are the visible damage that an infection or toxin causes in cultured cells.
For data set [29], the system named is Salmonella typhi. Description: Antibacterial activity against […] Salmonella typhi. Type of data set: functional, Salmonella enterica subsp. enterica serovar Typhi. The settings on record: Salmonella enterica.

≈ marks a conversion by molar mass, not a printed value.

One may read the MIC as the smallest concentration in the dilution series that meets the test's criterion for growth inhibition. By Inhibition is commonly meant the percentage by which the read-out fell short of the control. Usually half-life stands for how long it takes for the measured level to halve. As usually defined, the CC50 is the concentration at which the toxic effect on the cells reaches its halfway point. A word on the EC50: it is the midpoint of the concentration-response curve.

For the compound `CCn1cc(C(=O)O)c(=O)c2cc(F)c(N3CCN(CC(=O)OCC4C=CC(n5cc(C)c(=O)[nH]c5=O)O4)CC3)cc21` (configuration not stated), the MIC in data set [1] came to 1.22 µg/mL (≈ 2.09 µM); in data set [2] it was 1.22 µg/mL (≈ 2.09 µM); in data set [3] it was 1.22 µg/mL (≈ 2.09 µM); in data set [4] it was 9.76 µg/mL (≈ 16.7 µM); in data set [5], 9.76 µg/mL (≈ 16.7 µM); in [6], 9.76 µg/mL (≈ 16.7 µM). Also, the MIC in data set [7] was determined as 0.61 µg/mL (≈ 1.05 µM); in data set [8] it was 1.22 µg/mL (≈ 2.09 µM); in data set [9] it was 0.61 µg/mL (≈ 1.05 µM); in [10], 1.22 µg/mL (≈ 2.09 µM); in data set [11] it was 1.22 µg/mL (≈ 2.09 µM); in data set [12] it was 9.76 µg/mL (≈ 16.7 µM). The MIC in [13] amounted to 9.76 µg/mL (≈ 16.7 µM); in [15], 2.44 µg/mL (≈ 4.18 µM); in [17] it was 0.3 µg/mL (≈ 0.514 µM); in data set [18], 0.61 µg/mL (≈ 1.05 µM); in [20], 1.22 µg/mL (≈ 2.09 µM); in data set [21], 0.3 µg/mL (≈ 0.514 µM). Moreover, the MIC in data set [22] is 9.76 µg/mL (≈ 16.7 µM); in data set [23] it was 0.61 µg/mL (≈ 1.05 µM); in [24], 9.76 µg/mL (≈ 16.7 µM); in data set [26], 9.76 µg/mL (≈ 16.7 µM); in data set [27], 9.76 µg/mL (≈ 16.7 µM). The Selectivity index in data set [14] was 2.1. Moreover, the Inhibition in data set [16] came out at 98%. This compound also returned a half-life in data set [19] above 4 h. Also, it took 210 µM to reach half-maximal cytotoxicity in data set [25] (CC50). Also, the response in data set [28] was half-maximal at 100 µM (EC50).
With `Cc1cn(C2C=CC(COC(=O)CN3CCN(c4cc5c(cc4F)c(=O)c(C(=O)O)cn5C4CC4)CC3)O2)c(=O)[nH]c1=O` (configuration not stated), the MIC came out at 0.3 µg/mL (≈ 0.504 µM) in [1]; 1.22 µg/mL (≈ 2.05 µM) in [2]; 0.3 µg/mL (≈ 0.504 µM) in data set [3]; 0.3 µg/mL (≈ 0.504 µM) in data set [4]; 0.61 µg/mL (≈ 1.02 µM) in data set [5]; 0.61 µg/mL (≈ 1.02 µM) in data set [6]. Also, the MIC in data set [7] worked out at 0.61 µg/mL (≈ 1.02 µM); in data set [8], 0.3 µg/mL (≈ 0.504 µM); in [9], 0.61 µg/mL (≈ 1.02 µM); in data set [10], 1.22 µg/mL (≈ 2.05 µM); in data set [12], 0.61 µg/mL (≈ 1.02 µM); in data set [13], 4.88 µg/mL (≈ 8.19 µM). The MIC in [15] was 0.61 µg/mL (≈ 1.02 µM); in [17] it was 0.3 µg/mL (≈ 0.504 µM); in data set [18], 0.3 µg/mL (≈ 0.504 µM); in data set [20], 1.22 µg/mL (≈ 2.05 µM); in data set [21] it was 0.3 µg/mL (≈ 0.504 µM); in data set [22], 4.88 µg/mL (≈ 8.19 µM). The MIC in data set [23] was found to be 0.3 µg/mL (≈ 0.504 µM); in data set [24], 4.88 µg/mL (≈ 8.19 µM); in [26] it was 0.61 µg/mL (≈ 1.02 µM); in data set [27], 4.88 µg/mL (≈ 8.19 µM). The Selectivity index in data set [14] is 11.2. This compound had an Inhibition in data set [16] of 100%. This compound also showed a half-life in [19] of 4 h. The compound also returned a cytotoxic concentration (CC50) in [25] of 695 µM. This compound also yielded an EC50 in [28] of 61.8 µM.
As for `Cc1cn(C2C=CC(COC(=O)CN3CCNCC3)O2)c(=O)[nH]c1=O` (configuration not stated), the Selectivity index in data set [14] was above 15700. Moreover, in data set [19], the half-life was found to be 0.333 h. In [25], this compound gave a CC50 above 1000 µM. Besides, the EC50 in [28] was below 0.0636 µM.
In the case of `CCn1cc(C(=O)O)c(=O)c2cc(F)c(N3CCNCC3)cc21` [NORFLOXACIN], the MIC in data set [1] came out at 0.0381 µg/mL (≈ 0.119 µM); in data set [2] it was 0.0763 µg/mL (≈ 0.239 µM); in [3], 0.0763 µg/mL (≈ 0.239 µM); in [4], 0.0763 µg/mL (≈ 0.239 µM); in [5], 0.0381 µg/mL (≈ 0.119 µM); in [6], 0.0763 µg/mL (≈ 0.239 µM). Also, the MIC in data set [7] amounted to 0.0763 µg/mL (≈ 0.239 µM); in data set [8] it was 0.0763 µg/mL (≈ 0.239 µM); in data set [9], 0.0381 µg/mL (≈ 0.119 µM); in [10], 0.0381 µg/mL (≈ 0.119 µM); in data set [11], 0.0381 µg/mL (≈ 0.119 µM); in data set [12] it was 0.0763 µg/mL (≈ 0.239 µM). The MIC in data set [13] came out at 0.0381 µg/mL (≈ 0.119 µM); in data set [29] it was 0.0763 µg/mL (≈ 0.239 µM); in [15], 0.0381 µg/mL (≈ 0.119 µM); in [17] it was 0.0763 µg/mL (≈ 0.239 µM); in [18] it was 0.153 µg/mL (≈ 0.478 µM); in data set [20], 0.0381 µg/mL (≈ 0.119 µM). The MIC in data set [21] stood at 0.0763 µg/mL (≈ 0.239 µM); in data set [22], 0.153 µg/mL (≈ 0.478 µM); in data set [23], 0.0763 µg/mL (≈ 0.239 µM); in [24], 0.0381 µg/mL (≈ 0.119 µM); in data set [26], 0.0763 µg/mL (≈ 0.239 µM); in data set [27], 0.0381 µg/mL (≈ 0.119 µM).
On to `Cc1cn([C@H]2C=C[C@@H](CO)O2)c(=O)[nH]c1=O` [STAVUDINE], for which the Selectivity index in data set [14] was above 1110. In [16], the Inhibition stood at 0%. Moreover, in [25], the CC50 is above 100 µM. In addition, in [28], the EC50 worked out at 0.09 µM.
